Laboratory results taken from ChEMBL document CHEMBL5244277, “A review upon medicinal perspective and designing rationale of DPP-4 inhibitors” (Bioorg Med Chem, 2021).
Values after ≈ are worked out from the molar mass of the structure shown. One block for each compound: values may come before it.

Tests used:
Homo sapiens [1] = species: Homo sapiens; assay: Selectivity index, ratio of IC50 for DPP-9 (unknown origin) to IC50 for DPP-4 (unknown origin)
Mus musculus [2] = assay: Hypoglycemic activity in C57BL/6J mouse assessed as reduction in blood glucose level at 10 mg/kg, iv measured for 180 mins; format: ADME, organism-based; parameters: scale not given: the % may be the effect or the level left; details: in vivo, 3 h
Dipeptidyl peptidase 4 [3] = biological target: T1, Dipeptidyl peptidase 4 (Homo sapiens, UniProt P27487)
Target sequence in this assay (P27487 whole entry): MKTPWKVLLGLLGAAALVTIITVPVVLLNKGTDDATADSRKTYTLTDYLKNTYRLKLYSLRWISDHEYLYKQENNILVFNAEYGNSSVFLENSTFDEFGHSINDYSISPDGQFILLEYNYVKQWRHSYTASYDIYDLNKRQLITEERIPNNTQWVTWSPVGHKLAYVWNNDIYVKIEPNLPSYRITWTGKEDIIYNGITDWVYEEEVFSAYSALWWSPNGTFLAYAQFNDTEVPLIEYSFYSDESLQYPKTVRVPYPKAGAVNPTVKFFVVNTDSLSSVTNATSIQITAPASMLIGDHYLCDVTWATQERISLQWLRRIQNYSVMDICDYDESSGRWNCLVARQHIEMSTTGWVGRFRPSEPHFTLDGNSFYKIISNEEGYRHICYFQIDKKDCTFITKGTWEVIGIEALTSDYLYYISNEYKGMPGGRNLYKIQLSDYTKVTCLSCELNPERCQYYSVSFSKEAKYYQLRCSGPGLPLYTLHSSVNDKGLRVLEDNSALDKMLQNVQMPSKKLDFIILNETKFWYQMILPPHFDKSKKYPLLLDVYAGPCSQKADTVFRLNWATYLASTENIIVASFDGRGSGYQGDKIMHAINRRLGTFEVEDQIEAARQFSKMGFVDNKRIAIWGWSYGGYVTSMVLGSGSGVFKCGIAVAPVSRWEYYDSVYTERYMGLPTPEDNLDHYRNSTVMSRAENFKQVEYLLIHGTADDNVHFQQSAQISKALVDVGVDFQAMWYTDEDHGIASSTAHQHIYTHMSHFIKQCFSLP

Homo sapiens [4] = species: Homo sapiens; assay: Selectivity index, ratio of IC50 for DPP-8 (unknown origin) to IC50 for DPP-4 (unknown origin)
Mus musculus [5] = assay: Hypoglycemic activity in C57BL/6J mouse assessed as reduction in blood glucose level at 20 mg/kg, iv measured for 180 mins; format: ADME, organism-based; parameters: scale not given: the % may be the effect or the level left; details: in vivo, 3 h
Mus musculus [6] = assay: Hypoglycemic activity in C57BL/6J mouse assessed as reduction in blood glucose level at 5 mg/kg, iv measured for 180 mins; format: ADME, organism-based; parameters: scale not given: the % may be the effect or the level left; details: in vivo, 3 h
[7] = Clearance in mouse at 3 to 10 mg/kg, iv; format: ADME, organism-based; details: in vivo, dose 3-10 mg/kg
[8] = Cytotoxicity against human L02 cells assessed as cell viability after 72 hrs by MTT assay; format: toxicity, cell-based; details: read-out: Activity
[9] = Metabolic stability in rat liver microsome assessed as parent compound remaining; format: ADME; details: microsomes
Mus musculus [10] = assay: Hypoglycemic activity in mouse assessed as reduction in blood glucose level at 10 mg/kg measured after 120 mins; format: ADME, organism-based; parameters: scale not given: the % may be the effect or the level left; details: in vivo, 2 h
[11] = Metabolic stability in rat plasma assessed as parent compound remaining; format: ADME, cell-free
[12] = Biovailability in mouse at 3 to 10 mg/kg, iv; format: ADME, organism-based; details: in vivo, dose 3-10 mg/kg
[13] = Half life in mouse at 3 to 10 mg/kg, iv; format: ADME, organism-based; details: in vivo, dose 3-10 mg/kg
Dipeptidyl peptidase 9 = Dipeptidyl peptidase 9 (Homo sapiens, UniProt Q86TI2); assay: Inhibition of human recombinant DPP-9
Dipeptidyl peptidase 9, sequence (Q86TI2 whole entry): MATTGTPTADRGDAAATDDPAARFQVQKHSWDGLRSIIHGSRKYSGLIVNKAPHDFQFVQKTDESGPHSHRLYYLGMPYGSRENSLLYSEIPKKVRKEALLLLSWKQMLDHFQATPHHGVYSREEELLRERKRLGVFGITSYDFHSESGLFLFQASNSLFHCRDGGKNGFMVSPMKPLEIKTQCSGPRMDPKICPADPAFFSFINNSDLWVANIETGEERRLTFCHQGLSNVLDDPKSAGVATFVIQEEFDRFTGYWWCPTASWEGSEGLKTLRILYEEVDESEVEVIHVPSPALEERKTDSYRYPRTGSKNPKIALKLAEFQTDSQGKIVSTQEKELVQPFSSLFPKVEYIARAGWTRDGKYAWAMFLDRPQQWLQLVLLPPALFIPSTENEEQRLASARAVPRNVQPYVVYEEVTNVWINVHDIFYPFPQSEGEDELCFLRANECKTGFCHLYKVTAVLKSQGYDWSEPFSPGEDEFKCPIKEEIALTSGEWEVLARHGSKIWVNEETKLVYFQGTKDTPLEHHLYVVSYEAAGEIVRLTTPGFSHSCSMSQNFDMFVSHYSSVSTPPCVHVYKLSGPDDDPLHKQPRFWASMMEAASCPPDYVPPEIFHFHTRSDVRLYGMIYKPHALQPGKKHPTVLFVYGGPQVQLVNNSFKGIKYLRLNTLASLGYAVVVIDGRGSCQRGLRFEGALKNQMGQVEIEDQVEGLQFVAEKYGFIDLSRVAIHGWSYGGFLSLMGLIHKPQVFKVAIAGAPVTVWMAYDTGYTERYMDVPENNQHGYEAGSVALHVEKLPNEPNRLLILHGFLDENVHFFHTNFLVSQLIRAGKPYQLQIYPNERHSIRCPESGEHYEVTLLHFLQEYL

Dipeptidyl peptidase 8 = Dipeptidyl peptidase 8 (Homo sapiens, UniProt Q6V1X1); assay: Inhibition of human recombinant DPP-8
Dipeptidyl peptidase 8, sequence (Q6V1X1 whole entry): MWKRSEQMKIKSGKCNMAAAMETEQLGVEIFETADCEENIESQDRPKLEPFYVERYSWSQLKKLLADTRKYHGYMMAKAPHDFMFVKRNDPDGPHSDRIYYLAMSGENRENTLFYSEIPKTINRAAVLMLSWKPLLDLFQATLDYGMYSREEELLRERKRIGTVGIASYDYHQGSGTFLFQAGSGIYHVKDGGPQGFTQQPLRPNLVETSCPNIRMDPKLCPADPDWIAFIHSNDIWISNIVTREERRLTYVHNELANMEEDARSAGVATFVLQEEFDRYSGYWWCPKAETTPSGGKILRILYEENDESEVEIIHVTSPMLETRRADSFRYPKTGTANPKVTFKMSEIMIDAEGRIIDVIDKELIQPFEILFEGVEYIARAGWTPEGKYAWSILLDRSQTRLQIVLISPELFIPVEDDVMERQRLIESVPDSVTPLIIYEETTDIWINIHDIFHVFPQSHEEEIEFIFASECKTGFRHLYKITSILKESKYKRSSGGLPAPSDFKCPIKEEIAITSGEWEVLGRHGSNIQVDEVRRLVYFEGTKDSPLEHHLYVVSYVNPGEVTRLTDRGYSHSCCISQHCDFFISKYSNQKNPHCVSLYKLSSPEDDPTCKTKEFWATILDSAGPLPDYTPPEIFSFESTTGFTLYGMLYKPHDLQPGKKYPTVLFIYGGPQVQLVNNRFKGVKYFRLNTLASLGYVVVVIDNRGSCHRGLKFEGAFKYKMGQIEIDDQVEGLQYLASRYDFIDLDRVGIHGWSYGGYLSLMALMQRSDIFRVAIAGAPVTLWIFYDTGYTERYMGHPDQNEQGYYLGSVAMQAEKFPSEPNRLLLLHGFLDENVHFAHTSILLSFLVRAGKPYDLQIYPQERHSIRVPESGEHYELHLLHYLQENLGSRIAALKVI

[14] = Half life in KKAy mouse at 10 to 30 mg/kg; format: ADME, organism-based; details: in vivo, dose 10-30 mg/kg
Mus musculus [15] = assay: Hypoglycemic activity in ICR mouse assessed as reduction in blood glucose level at 1 mg/kg; format: ADME, organism-based; parameters: scale not given: the % may be the effect or the level left; details: in vivo
Mus musculus [16] = assay: Hypoglycemic activity in KKAy mouse assessed as reduction in blood glucose level at 10 mg/kg; format: ADME, organism-based; parameters: scale not given: the % may be the effect or the level left; details: in vivo
Mus musculus [17] = assay: Hypoglycemic activity in ICR mouse assessed as reduction in blood glucose level at 3 mg/kg; format: ADME, organism-based; parameters: scale not given: the % may be the effect or the level left; details: in vivo
Mus musculus [18] = assay: Hypoglycemic activity in KKAy mouse assessed as reduction in blood glucose level at 30 mg/kg; format: ADME, organism-based; parameters: scale not given: the % may be the effect or the level left; details: in vivo
Mus musculus [19] = assay: Hypoglycemic activity in ICR mouse assessed as reduction in blood glucose level at 10 mg/kg; format: ADME, organism-based; parameters: scale not given: the % may be the effect or the level left; details: in vivo
[20] = Oral bioavailability in KKAy mouse at 10 to 30 mg/kg; format: ADME, organism-based; details: in vivo, dose 10-30 mg/kg
Mus musculus [21] = assay: Hypoglycemic activity in ICR mouse assessed as reduction in blood glucose level at 30 mg/kg; format: ADME, organism-based; parameters: scale not given: the % may be the effect or the level left; details: in vivo
[22] = Antioxidant activity assessed as DPPH radical scavenging activity; format: functional
Dipeptidyl peptidase 4 [23] = biological target: T1, Dipeptidyl peptidase 4; assay: Inhibition of DPP-4 (unknown origin) using (H-Gly-Pro-AMC) as substrate
Target sequence in this assay (P27487 whole entry): as the sequence (P27487 whole entry) above

[24] = Half life in Sprague-Dawley rat at 3 mg/kg, po; format: ADME, organism-based; details: in vivo
Rattus norvegicus [25] = assay: Antihyperglycemic activity in STZ-induced diabetic rat model assessed as reduction in blood glucose level at 100 mg/kg, po measured upto 24 hrs; format: functional; parameters: scale not given: the % may be the effect or the level left
Rattus norvegicus [26] = assay: Anti-hyperglycemic activity in STZ-induced diabetic rat model assessed as improvement in glucose tolerance level at 30 mg/kg, po measured on day 10; format: functional; details: time 10 day
Rattus norvegicus [27] = assay: Anti-hyperglycemic activity in STZ-induced diabetic rat model assessed as improvement in glucose tolerance level at 30 mg/kg, po measured on day 15; format: functional
Homo sapiens [28] = species: Homo sapiens; assay: Selectivity index, ratio of IC50 for human recombinant DPP-4 to IC50 for human recombinant DPP-9
Mus musculus [29] = assay: Hypoglycemic activity in ICR mouse assessed as reduction in blood glucose level at 3 mg/kg measured at 120 mins; format: ADME, organism-based; parameters: scale not given: the % may be the effect or the level left; details: in vivo, 2 h
Dipeptidyl peptidase 4 [30] = biological target: T1, Dipeptidyl peptidase 4; assay: Inhibition of human recombinant DPP-4 using H-Gly-Pro-aminomethylcoumarin as substrate
Target sequence in this assay (P27487 whole entry): as above

Homo sapiens [31] = species: Homo sapiens; assay: Selectivity index, ratio of IC50 for human recombinant DPP-4 to IC50 for human recombinant DPP-8
Dipeptidyl peptidase 4 [32] = biological target: T1, Dipeptidyl peptidase 4; assay: Inhibition of human recombinant DPP-4 using H-Gly-Pro-aminomethylcoumarin as substrate at 100 uM relative to control
Target sequence in this assay (P27487 whole entry, looked up): as the sequence (P27487 whole entry) above

Mus musculus [33] = assay: Hypoglycemic activity in ICR mouse assessed as reduction in blood glucose level at 30 mg/kg measured at 120 mins; format: ADME, organism-based; parameters: scale not given: the % may be the effect or the level left; details: in vivo, 2 h
Mus musculus [34] = assay: Hypoglycemic activity in C57BL/6J mouse assessed as reduction in blood glucose level at 3 mg/kg, iv measured for 180 mins; format: ADME, organism-based; parameters: scale not given: the % may be the effect or the level left; details: in vivo, 3 h
Mus musculus [35] = assay: Antidiabetic activity in C57BL/6J mouse assessed as decrease in AUC of glucose at 3 mg/kg, po; format: functional; parameters: scale not given: the % may be the effect or the level left
[36] = Bioavailability in rat; format: ADME, organism-based; details: in vivo
[37] = Bioavailability in dog; format: ADME, organism-based, Canis lupus familiaris; details: in vivo
[38] = Bioavailability in monkey; format: ADME, organism-based, Macaca mulatta; details: rhesus monkey, in vivo
Dipeptidyl peptidase 4 [39] = biological target: T1, Dipeptidyl peptidase 4; assay: Inhibition of human recombinant DPP-4 at 25 uM using Gly-Pro-Aminomethylcoumarin as substrate by Spectra max fluorometer analysis relative to control
Target sequence in this assay (P27487 whole entry, looked up): as the sequence (P27487 whole entry) above

Mus musculus [40] = assay: Hypoglycemic activity in KKAy mouse assessed as reduction in blood glucose level at 3 mg/kg; format: ADME, organism-based; parameters: scale not given: the % may be the effect or the level left; details: in vivo
[41] = Aqueous stability in phosphate buffer at pH 7.4 assessed as half life; format: physicochemical
[42] = Half life in ICR mouse at 1 to 10 mg/kg, po; format: ADME, organism-based; details: in vivo, dose 1-10 mg/kg
[43] = Metabolic stability in human liver microsomes assessed as intrinsic clearance; format: ADME, Microsome; details: read-out: CLH
[44] = MRT in ICR mouse at 1 to 10 mg/kg, po; format: ADME, organism-based; details: in vivo, dose 1-10 mg/kg
[45] = Tmax in ICR mouse at 1 to 10 mg/kg, po; format: ADME, organism-based; details: in vivo, dose 1-10 mg/kg
[46] = Cmax in ICR mouse at 1 to 10 mg/kg, po; format: ADME, organism-based; parameters: route po; details: in vivo, dose 1-10 mg/kg

clearance [7]: 5.83 mL/min/kg | Stability [9]: 101.83% | Activity (Mus musculus [10]): 16.4% | Stability [11]: 99.38% | bioavailability [12]: 27.3% | half-life [13]: 11.1 h | IC50 (Dipeptidyl peptidase 9): > 100000 nM | IC50 (Dipeptidyl peptidase 8): > 100000 nM
SMILES: CC#CCn1c(N2CCC[C@@H](N)C2)cc(=O)n(Cc2ccc(Cl)c(C(=O)N(C)C)c2)c1=O
viability at 72 h [8]: 100%

half-life [14]: 5.4 h | Activity (Mus musculus [15]): 18.75% | Activity (Mus musculus [16]): 19.2% | Activity (Mus musculus [17]): 27.36% | Activity (Mus musculus [18]): 26.4% | Activity (Mus musculus [19]): 29.13% | bioavailability [20]: 21.8% | Activity (Mus musculus [21]): 27.57%
SMILES: N#C[C@@H]1C[C@H](F)CN1C(=O)[C@@H](N)Cc1ccccc1

bioavailability [36]: 57% | bioavailability [37]: 91% | IC50 (Dipeptidyl peptidase 4 [3]): 4.3 nM | bioavailability [38]: 87%
SMILES: CC1c2nnc(C(F)(F)F)n2CCN1C(=O)C[C@H](N)Cc1cc(F)c(F)cc1F.Cl (some centres undefined)

half-life [41]: 168 h
SMILES: CO[C@@H]1CCCN1C(=O)CC(C)(C)[C@H](N)C(=O)N1CCC[C@H]1C#N.O=C(O)C(F)(F)F

half-life [42]: 1.03 h | CLint scaled [43]: < 100 mL/min/kg | MRT [44]: 2.72 h | Tmax [45]: 2 h | Cmax [46]: 719 ng/mL
SMILES: N[C@@H](CCNC(=O)N1CCn2c(nnc2C(F)(F)F)C1)Cc1cc(F)c(F)cc1F

More lines, now with the values behind:

SMILES: Brc1nc2n(n1)CC(c1cc3ccccc3o1)=NN2
Ratio IC50 (Homo sapiens [1]): 8 | Activity (Mus musculus [2]): 33.6% | IC50 (Dipeptidyl peptidase 4 [3]): 28500 nM | Ratio IC50 (Homo sapiens [4]): 8 | Activity (Mus musculus [5]): 47.1% | Activity (Mus musculus [6]): 19.6%

SMILES: O=[N+]([O-])c1cccc(/C=N/N2C(c3ccccc3)=Nc3ccc(I)cc3C2Nc2nccs2)c1 (centres undefined)
IC50 [22]: 51.23 µg/mL (≈ 88.3 µM)

SMILES: Cc1ccc2cc(CNc3nc(C)cs3)n(/N=C/c3ccc(O)cc3)c(=O)c2c1
IC50 (Dipeptidyl peptidase 4 [23]): 1.12 nM

SMILES: N#C[C@@H]1C[C@H]2[C@H](CC2(F)F)N1C(=O)[C@@H](N)C12CC3CC(CC(O)(C3)C1)C2
half-life [24]: 0.92 h

SMILES: O=C(CN1CCN(c2cccc(Cl)c2)CC1)N1CCCCC1
Activity (Rattus norvegicus [25]): 24.6% | Activity (Rattus norvegicus [26]): 11.8% | Activity (Rattus norvegicus [27]): 19.4%

SMILES: NCc1c(-c2ccc(Cl)cc2Cl)nc2ccccn12
Ratio IC50 (Homo sapiens [28]): 192 | Activity (Mus musculus [29]): 35% | IC50 (Dipeptidyl peptidase 4 [30]): 130 nM | Ratio IC50 (Homo sapiens [31]): 215 | inhibition (Dipeptidyl peptidase 4 [32]): 75% | Activity (Mus musculus [33]): 33.53%

SMILES: N[C@@H](CC(=O)N1CCn2c(nnc2C(F)(F)F)C1)Cc1cc(F)c(F)cc1F [SITAGLIPTIN]
Activity (Rattus norvegicus [25]): 31.9% | Activity (Mus musculus [34]): 27.8% | Activity (Mus musculus [35]): 17.9%

SMILES: O=C1O[C@H]([C@@H](O)CO)C(O)=C1O [ASCORBIC ACID]
IC50 [22]: 34.69 µg/mL (≈ 197 µM)

SMILES: Cc1ccccc1-c1nc2ccccn2c1CN
Ratio IC50 (Homo sapiens [28]): > 340 | IC50 (Dipeptidyl peptidase 4 [30]): 290 nM | Ratio IC50 (Homo sapiens [31]): > 340 | inhibition (Dipeptidyl peptidase 4 [32]): 59%

SMILES: O=C(CN1CCN(c2ccnc3cc(Cl)ccc23)CC1)N1CCCC1
Activity (Rattus norvegicus [25]): 25.5% | Activity (Rattus norvegicus [26]): 14.6% | Activity (Rattus norvegicus [27]): 26.4%

SMILES: Cc1cc(=O)oc2cc(NC(=O)CN3CCNCC3)ccc12
inhibition (Dipeptidyl peptidase 4 [39]): 52.9%

SMILES: N#C[C@@H]1CCCN1C(=O)CNC1C[C@H]2CC(O)C[C@H]2C1 (some centres undefined)
Activity (Mus musculus [18]): 52.2% | Activity (Mus musculus [40]): 61.9%
